Assay results published in patent US4868321A, “Isothiocyanate intermediates” (FMC Corporation, priority 1988, dated 1989).

Tests used:
Format in all cases: in vivo
[1] = system: Cotton; experiment: Preemergence Herbicidal Activity, Cotton; settings: Gossypium hirsutum, pre-emergence; for plant injury at 250 g/ha: 0.25 kg/ha
Outline: (§1)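 Percent control scored after pre- or postemergence treatment at rates in kg/ha, using test compounds generally formulated in 50/50 acetone/water.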

[2] = system: Soybean; experiment: Preemergence Herbicidal Activity, Soybean; settings: Glycine max, pre-emergence; for plant injury at 250 g/ha: 0.25 kg/ha
Outline: (§2)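 Kilogram-per-hectare application rates; outcome scored by percent control of treated plants.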

[3] = system: Field Corn; experiment: Preemergence Herbicidal Activity, Field Corn; settings: Zea mays, pre-emergence; for plant injury at 250 g/ha: 0.25 kg/ha
Outline: as §2

[4] = system: Rice; experiment: Preemergence Herbicidal Activity, Rice; settings: Oryza sativa, pre-emergence; for plant injury at 250 g/ha: 0.25 kg/ha
Outline: as §2

[5] = system: Wheat; experiment: Preemergence Herbicidal Activity, Wheat; settings: Triticum aestivum, pre-emergence; for plant injury at 250 g/ha: 0.25 kg/ha
Outline: as §2

[6] = system: Field Bindweed; experiment: Preemergence Herbicidal Activity, Field Bindweed; settings: pre-emergence; for pest or weed control at 250 g/ha: 0.25 kg/ha
Outline: as §1

[7] = system: Morningglory; experiment: Preemergence Herbicidal Activity, Morningglory; settings: Ipomoea, pre-emergence; for pest or weed control at 250 g/ha: 0.25 kg/ha
Outline: as §1

[8] = system: Velvetleaf; experiment: Preemergence Herbicidal Activity, Velvetleaf; settings: Abutilon theophrasti, pre-emergence; for pest or weed control at 250 g/ha: 0.25 kg/ha
Outline: as §1

[9] = system: Barnyardgrass; experiment: Preemergence Herbicidal Activity, Barnyardgrass; settings: Echinochloa crus-galli, pre-emergence; for pest or weed control at 250 g/ha: 0.25 kg/ha
Outline: (§3)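 Application rate is expressed per hectare in kilograms. Values are percent control.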

[10] = system: Green Foxtail; experiment: Preemergence Herbicidal Activity, Green Foxtail; settings: Setaria viridis, pre-emergence; for pest or weed control at 250 g/ha: 0.25 kg/ha
Outline: as §3

[11] = system: Johnsongrass; experiment: Preemergence Herbicidal Activity, Johnsongrass; settings: Sorghum halepense, pre-emergence; for pest or weed control at 250 g/ha: 0.25 kg/ha
Outline: as §3

[12] = system: Cotton; experiment: Postemergence Herbicidal Activity, Cotton; settings: Gossypium hirsutum, post-emergence; for plant injury at 250 g/ha: 0.25 kg/ha
Outline: as §1

[13] = system: Soybean; experiment: Postemergence Herbicidal Activity, Soybean; settings: Glycine max, post-emergence; for plant injury at 250 g/ha: 0.25 kg/ha
Outline: as §2

[14] = system: Field Corn; experiment: Postemergence Herbicidal Activity, Field Corn; settings: Zea mays, post-emergence; for plant injury at 250 g/ha: 0.25 kg/ha
Outline: as §2

[15] = system: Rice; experiment: Postemergence Herbicidal Activity, Rice; settings: Oryza sativa, post-emergence; for plant injury at 250 g/ha: 0.25 kg/ha
Outline: as §2

[16] = system: Wheat; experiment: Postemergence Herbicidal Activity, Wheat; settings: Triticum aestivum, post-emergence; for plant injury at 250 g/ha: 0.25 kg/ha
Outline: as §2

[17] = system: Field Bindweed; experiment: Postemergence Herbicidal Activity, Field Bindweed; settings: post-emergence; for pest or weed control at 250 g/ha: 0.25 kg/ha
Outline: as §1

[18] = system: Morningglory; experiment: Postemergence Herbicidal Activity, Morningglory; settings: Ipomoea, post-emergence; for pest or weed control at 250 g/ha: 0.25 kg/ha
Outline: as §1

[19] = system: Velvetleaf; experiment: Postemergence Herbicidal Activity, Velvetleaf; settings: Abutilon theophrasti, post-emergence; for pest or weed control at 250 g/ha: 0.25 kg/ha
Outline: as §1

[20] = system: Barnyardgrass; experiment: Postemergence Herbicidal Activity, Barnyardgrass; settings: Echinochloa crus-galli, post-emergence; for pest or weed control at 250 g/ha: 0.25 kg/ha
Outline: as §3

[21] = system: Green Foxtail; experiment: Postemergence Herbicidal Activity, Green Foxtail; settings: Setaria viridis, post-emergence; for pest or weed control at 250 g/ha: 0.25 kg/ha
Outline: as §3

[22] = system: Johnsongrass; experiment: Postemergence Herbicidal Activity, Johnsongrass; settings: Sorghum halepense, post-emergence; for pest or weed control at 250 g/ha: 0.25 kg/ha
Outline: as §3

Compound: CCCS(=O)(=O)N(C)c1cc(-n2nnn(CCCF)c2=O)c(F)cc1Cl [Compound 29, 1-[4-Chloro-2-fluoro-5-(N--methyl-N--propylsulfonylamino)phenyl]-1,4-dihydro-4-(3-fluoropropyl)-5H--tetrazol-5-one]
- plant injury at 250 g/ha [1]: 60%
- plant injury at 250 g/ha [2]: 30%
- plant injury at 250 g/ha [3]: 95%
- plant injury at 250 g/ha [4]: 60%
- plant injury at 250 g/ha [5]: 80%
- pest or weed control at 250 g/ha [6]: 70%
- pest or weed control at 250 g/ha [7]: 70%
- pest or weed control at 250 g/ha [8]: 100%
- pest or weed control at 250 g/ha [9]: 100%
- pest or weed control at 250 g/ha [10]: 100%
- pest or weed control at 250 g/ha [11]: 100%
- plant injury at 250 g/ha [12]: 70%
- plant injury at 250 g/ha [13]: 70%
- plant injury at 250 g/ha [14]: 40%
- plant injury at 250 g/ha [15]: 60%
- plant injury at 250 g/ha [16]: 80%
- pest or weed control at 250 g/ha [17]: 80%
- pest or weed control at 250 g/ha [18]: 70%
- pest or weed control at 250 g/ha [19]: 100%
- pest or weed control at 250 g/ha [20]: 50%
- pest or weed control at 250 g/ha [21]: 60%
- pest or weed control at 250 g/ha [22]: 70%

Compound: CS(=O)(=O)Nc1cc(-n2nnn(CCCF)c2=O)c(F)cc1Br [Compound 33, 1-[4-Bromo-2-fluoro-5-(N--methylsulfonylamino)phenyl]-1,4-dihydro-(3-fluoropropyl)-5H--tetrazol-5-one]
- plant injury at 250 g/ha [1]: 100%
- plant injury at 250 g/ha [2]: 10%
- plant injury at 250 g/ha [3]: 40%
- plant injury at 250 g/ha [4]: 80%
- plant injury at 250 g/ha [5]: 20%
- pest or weed control at 250 g/ha [6]: 100%
- pest or weed control at 250 g/ha [7]: 100%
- pest or weed control at 250 g/ha [8]: 100%
- pest or weed control at 250 g/ha [9]: 95%
- pest or weed control at 250 g/ha [10]: 70%
- pest or weed control at 250 g/ha [11]: 70%
- plant injury at 250 g/ha [12]: 100%
- plant injury at 250 g/ha [13]: 70%
- plant injury at 250 g/ha [14]: 30%
- plant injury at 250 g/ha [15]: 80%
- plant injury at 250 g/ha [16]: 40%
- pest or weed control at 250 g/ha [17]: 100%
- pest or weed control at 250 g/ha [18]: 100%
- pest or weed control at 250 g/ha [19]: 100%
- pest or weed control at 250 g/ha [20]: 80%
- pest or weed control at 250 g/ha [21]: 100%
- pest or weed control at 250 g/ha [22]: 70%

Compound: CCOC(=O)CN(c1cc(-n2nnn(CCCF)c2=O)c(F)cc1Cl)S(=O)(=O)CC [Compound 17, ethyl [2-chloro-4-fluoro-5-[1,4-dihydro-5-oxo-4-(3-fluoropropyl)tetrazol-1-yl]-phenyl(N--ethylsulfonyl)amino]-acetate]
- plant injury at 1000 g/ha ([1]; 1.0 kg/ha): 10%
- plant injury at 1000 g/ha ([2]; 1.0 kg/ha): 10%
- plant injury at 1000 g/ha ([3]; 1.0 kg/ha): 10%
- plant injury at 1000 g/ha ([4]; 1.0 kg/ha): 10%
- plant injury at 1000 g/ha ([5]; 1.0 kg/ha): 20%
- pest or weed control at 1000 g/ha ([6]; 1.0 kg/ha): 10%
- pest or weed control at 1000 g/ha ([7]; 1.0 kg/ha): 30%
- pest or weed control at 1000 g/ha ([8]; 1.0 kg/ha): 90%
- pest or weed control at 1000 g/ha ([9]; 1.0 kg/ha): 20%
- pest or weed control at 1000 g/ha ([10]; 1.0 kg/ha): 30%
- pest or weed control at 1000 g/ha ([11]; 1.0 kg/ha): 60%
- plant injury at 1000 g/ha ([12]; 1.0 kg/ha): 90%
- plant injury at 1000 g/ha ([13]; 1.0 kg/ha): 50%
- plant injury at 1000 g/ha ([14]; 1.0 kg/ha): 60%
- plant injury at 1000 g/ha ([15]; 1.0 kg/ha): 20%
- plant injury at 1000 g/ha ([16]; 1.0 kg/ha): 40%
- pest or weed control at 1000 g/ha ([17]; 1.0 kg/ha): 80%
- pest or weed control at 1000 g/ha ([18]; 1.0 kg/ha): 60%
- pest or weed control at 1000 g/ha ([19]; 1.0 kg/ha): 95%
- pest or weed control at 1000 g/ha ([20]; 1.0 kg/ha): 40%
- pest or weed control at 1000 g/ha ([21]; 1.0 kg/ha): 40%
- pest or weed control at 1000 g/ha ([22]; 1.0 kg/ha): 40%
